From US10793575B2, “Oxoisoquinoline derivatives” (CARNA BIOSCIENCES, INC., priority 2016, dated 2020)

What was measured:
OCI-Ly10 cells = assay: Proliferation-Inhibitory Test Against Diffuse Large-Cell B-Cell Lymphoma OCI-Ly10 Strain; type: cell-based; details: Homo sapiens, 96 hours, alamarBlue
Procedure, shortened: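 In IMDM with 20% FBS, OCI-Ly10 cells (20000 cells/well) were exposed to compound at 0.9 nM to 30000 nM (0.3% DMSO final) for 96 hours. Viability was then read with alamarBlue reagent.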

dephosphorylated BTK = dephosphorylated BTK (Homo sapiens (Human), UniProt Q06187); assay: BTK Activity Inhibition Test (mobility shift assay); type: biochemical; details: 200 μM ATP, read-out: Inhibitory Activity on BTK
Protocol: Dephosphorylated BTK was obtained by adding λ protein phosphatase (manufactured by New England BioLabs Inc., Code No. P0753S) and MnCl2 at 10 U/μg and 2 mM, respectively, to biotinylated BTK protein BTN-BTK (Manufactured by Carna Biosciences, Inc.) enzyme solution, reacting the mixture at 4° C. overnight, and removing of λ protein phosphatase by anti […]-tag antibody agarose gel chromatography, followed by buffer exchange using a 10DG Desalting Column.
The kinase activity was measured using QuickScout Screening Assist (trade mark) MSA (commercially available kit manufactured by Carna Biosciences, Inc.) by mobility shift assay (MSA) method. The substrate of the kinase reaction was an FITC-labeled SRCtide peptide included in the kit. An assay buffer [20 mM HEPES, 0.01% Triton X-100 (Trade mark), 2 mM dithiothreitol, pH 7.5] was used and adjusted at 4 μM substrate, 20 mM MgCl2 and 200 μm ATP to obtain a substrate mixture solution. The enzyme solution was also prepared by diluting the dephosphorylated BTK to 0.46 nM using the assay buffer. The 10 mM solution of the test compound in DMSO was further diluted with DMSO to 10 levels of the concentration (0.00003 mM, 0.0001 mM, 0.0003 mM, 0.001 mM, 0.003 mM, 0.01 mM, 0.03 mM, 0.1 mM, 0.3 mM, 1 mM), each of which was subjected to a 25-fold dilution with the assay buffer to obtain the drug solutions (4% DMSO solutions). 5 μL of the drug solution or a control solution (4% DMSO-assay buffer), 5 μL of the substrate mixture solution, and 10 μL of the enzyme solution were mixed in the wells of a polypropylene 384-well plate and allowed to react at room temperature for 2 hours, and then quenched by adding 60 μL of the termination buffer included in the kit. Subsequently, the quantities of the substrates (S) and the phosphorylated substrate (P) in the reaction solution were measured using LabChip EZ Reader II system (manufactured by Caliper Life Sciences) according to the protocol of the assay kit.
(§1) The heights of the peaks of the isolated substrate and the phosphorylated substrate were represented as S and P, respectively, and a blank which contained the assay buffer instead of the enzyme solution was also measured.
(§2) The inhibition rate (%) of the test compound was calculated according to the following equation; Inhibition rate (%)=(1−(C−A)/(B−A))×100 • wherein, A, B and C represent P/(P+S) of the blank well, P/(P+S) of the control well and P/(P+S) of the compound-containing well, respectively.
(§3) The IC50 value was calculated via a regression analysis of the inhibition rate (%) and the test compound concentration (logarithmic value).

wild type BTK [BTK(WT)] = wild type BTK [BTK(WT)] (Homo sapiens (Human), UniProt Q06187); assay: C481S Mutant BTK Inhibitory Activity Test, wild type BTK (mobility shift assay); type: biochemical; details: 120 μM ATP
Protocol: (§4) The kinase activity was measured using QuickScout Screening Assist (trademark) MSA (commercially available kit manufactured by Carna Biosciences, Inc.) by mobility shift assay (MSA) method. The substrate of the kinase reaction was an FITC-labeled SRCtide peptide included in the kit. […] The 10 mM solution of the test compound in DMSO was further diluted with DMSO to 10 levels of the concentration (0.00003 mM, 0.0001 mM, 0.0003 mM, 0.001 mM, 0.003 mM, 0.01 mM, 0.03 mM, 0.1 mM, 0.3 mM, 1 mM), each of which was subjected to a 25-fold dilution with the assay buffer to obtain the drug solutions (4% DMSO solutions).
(§5) 5 μL of the drug solution or a control solution (4% DMSO-assay buffer), 5 μL of the substrate mixture solution, and 10 μL of the enzyme solution were mixed in the wells of a polypropylene 384-well plate and allowed to react at room temperature for 1 hour, and then quenched by adding 60 μL of the termination buffer included in the kit. Subsequently, the quantities of the substrates (S) and the phosphorylated substrate (P) in the reaction solution were measured using LabChip EZ Reader II system (manufactured by Caliper Life Sciences) according to the protocol of the assay kit.
as §1, §2, §3

[1] = target: C481S mutant BTK [BTK(C481S)] (Homo sapiens (Human), UniProt Q06187, C481S); assay: C481S Mutant BTK Inhibitory Activity Test (mobility shift assay); type: biochemical; details: for IC50: C481S mutant BTK, 100 μM ATP; for C481S mutation-resistance: IC50[BTK(C481S)]/IC50[BTK(WT)]
Protocol: as §4, §5, §1, §2, §3

wild type BTK [BTK(WT)], sequence (Q06187 whole entry): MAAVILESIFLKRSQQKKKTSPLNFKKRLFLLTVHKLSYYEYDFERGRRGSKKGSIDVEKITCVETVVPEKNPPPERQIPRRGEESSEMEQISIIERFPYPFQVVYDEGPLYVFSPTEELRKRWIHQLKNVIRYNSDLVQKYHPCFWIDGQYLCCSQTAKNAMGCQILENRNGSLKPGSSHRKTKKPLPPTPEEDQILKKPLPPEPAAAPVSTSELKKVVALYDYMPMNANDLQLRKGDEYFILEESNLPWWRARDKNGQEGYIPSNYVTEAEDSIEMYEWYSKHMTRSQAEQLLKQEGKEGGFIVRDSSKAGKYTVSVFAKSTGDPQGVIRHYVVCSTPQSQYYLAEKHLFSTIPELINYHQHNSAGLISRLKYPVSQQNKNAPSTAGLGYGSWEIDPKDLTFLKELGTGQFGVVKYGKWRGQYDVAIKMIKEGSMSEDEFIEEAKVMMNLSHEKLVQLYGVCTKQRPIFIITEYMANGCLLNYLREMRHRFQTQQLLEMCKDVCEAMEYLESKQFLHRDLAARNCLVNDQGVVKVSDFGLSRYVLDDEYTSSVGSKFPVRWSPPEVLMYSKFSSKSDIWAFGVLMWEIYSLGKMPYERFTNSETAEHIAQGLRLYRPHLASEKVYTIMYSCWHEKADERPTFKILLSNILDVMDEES
C481S mutant BTK [BTK(C481S)], sequence (Q06187 whole entry C481S): as the sequence (Q06187 whole entry) above, with C481S counted along it
dephosphorylated BTK, sequence (Q06187 whole entry): as the sequence (Q06187 whole entry) above

Row | SMILES | IC50 (OCI-Ly10 cells) | IC50 (dephosphorylated BTK) | IC50 (wild type BTK [BTK(WT)]) | IC50 [1] | C481S mutation-resistance [1]
1 | NCc1cc2c(-c3cccc(-n4ccc5cc(C6CC6)cc(F)c5c4=O)c3CO)nc(N)nc2[nH]1 [Example 39, 2-{3-[2-amino-6-(aminomethyl)-7H-pyrrolo[2,3-d]pyrimidin-4-yl]-2-(hydroxymethyl)phenyl}-6-cyclopropyl-8-fluoroisoquinolin-1(2H)-one] | 1050 nM | 10 to 100 nM |  |  | 
2 | Nc1nc(-c2cccc(-n3ccc4cc(C5CC5)cc(F)c4c3=O)c2CO)c2cc(-c3cccc(C(F)(F)F)c3)[nH]c2n1 [Example 40, 2-(3-{2-amino-6-[3-(trifluoromethyl)phenyl]-7H-pyrrolo[2,3-d]pyrimidin-4-yl}-2-(hydroxymethyl)phenyl)-6-cyclopropyl-8-fluoroisoquinolin-1(2H)-one] | 1330 nM | < 10 nM |  |  | 
3 | CNc1cc(-c2cc3c(-c4cccc(-n5ccc6cc(C7CC7)cc(F)c6c5=O)c4CO)nc(N)nc3[nH]2)ccn1 [Example 50, 2-(3-{2-amino-6-[2-(methylamino)pyridin-4-yl]-7H-pyrrolo[2,3-d]pyrimidin-4-yl}-2-(hydroxymethyl)phenyl)-6-cyclopropyl-8-fluoroisoquinolin-1(2H)-one] | 52 nM |  | 0.77 nM | 1.6 nM | 2.1
4 | CN(C)Cc1ccc(-c2cc3c(-c4cccc(-n5ccc6cc(C7CC7)cc(F)c6c5=O)c4CO)nc(N)nc3[nH]2)cc1 [Example 51, 2-[3-(2-amino-6-{4-[(dimethylamino)methyl]phenyl}-7H-pyrrolo[2,3-d]pyrimidin-4-yl)-2-(hydroxymethyl)phenyl]-6-cyclopropyl-8-fluoroisoquinolin-1(2H)-one] | 10 nM |  | 0.43 nM | 0.78 nM | 1.8
5 | CCN(CC)Cc1ccc(-c2cc3c(-c4cccc(-n5ccc6cc(C7CC7)cc(F)c6c5=O)c4CO)nc(N)nc3[nH]2)cc1 [Example 52, 2-[3-(2-amino-6-{4-[(diethylamino)methyl]phenyl}-7H-pyrrolo[2,3-d]pyrimidin-4-yl)-2-(hydroxymethyl)phenyl]-6-cyclopropyl-8-fluoroisoquinolin-1(2H)-one] | 15 nM |  | 0.43 nM | 0.76 nM | 1.8
6 | Nc1nc(-c2cccc(-n3ccc4cc(C5CC5)cc(F)c4c3=O)c2CO)c2cc(-c3ccc(CN4CCCC4)cc3)[nH]c2n1 [Example 53, 2-(3-{2-amino-6-[4-(pyrrolidin-1-ylmethyl)phenyl]-7H-pyrrolo[2,3-d]pyrimidin-4-yl}-2-(hydroxymethyl)phenyl)-6-cyclopropyl-8-fluoroisoquinolin-1(2H)-one] | 25 nM |  | 0.51 nM | 0.9 nM | 1.8
7 | Nc1nc(-c2cccc(-n3ccc4cc(C5CC5)cc(F)c4c3=O)c2CO)c2cc(-c3ccc(CN4CCCCC4)cc3)[nH]c2n1 [Example 54, 2-(3-{2-amino-6-[4-(piperidin-1-ylmethyl)phenyl]-7H-pyrrolo[2,3-d]pyrimidin-4-yl}-2-(hydroxymethyl)phenyl)-6-cyclopropyl-8-fluoroisoquinolin-1(2H)-one] | 17 nM |  | 0.58 nM | 0.86 nM | 1.5
8 | Nc1nc(-c2cccc(-n3ccc4cc(C5CC5)cc(F)c4c3=O)c2CO)c2cc(-c3ccc(CN4CCN(CCO)CC4)cc3)[nH]c2n1 [Example 61, 2-{3-[2-amino-6-(4-{[4-(2-hydroxyethyl)piperazin-1-yl]methyl}phenyl)-7H-pyrrolo[2,3-d]pyrimidin-4-yl]-2-(hydroxymethyl)phenyl}-6-cyclopropyl-8-fluoroisoquinolin-1(2H)-one] | 5 nM |  | 0.36 nM | 0.57 nM | 1.6
9 | Nc1nc(-c2cccc(-n3ccc4cc(C5CC5)cc(F)c4c3=O)c2CO)c2cc(-c3ccc(CN4CCNC(=O)C4)cc3)[nH]c2n1 [Example 66, 2-[3-(2-amino-6-{4-[(3-oxopiperazin-1-yl)methyl]phenyl}-7H-pyrrolo[2,3-d]pyrimidin-4-yl)-2-(hydroxymethyl)phenyl}-6-cyclopropyl-8-fluoroisoquinolin-1(2H)-one] | 18 nM |  | 0.47 nM | 0.93 nM | 2
10 | CN1CCN(C(=O)N2CC=C(c3cc4c(-c5cccc(-n6ccc7cc(C8CC8)cc(F)c7c6=O)c5CO)nc(N)nc4[nH]3)CC2)CC1 [Example 71, 2-(3-{2-amino-6-[1-(4-methylpiperazine-1-carbonyl)-1,2,3,6-tetrahydropyridin-4-yl]-7H-pyrrolo[2,3-d]pyrimidin-4-yl}-2-(hydroxymethyl)phenyl)-6-cyclopropyl-8-fluoroisoquinolin-1(2H)-one] |  |  | 0.39 nM | 0.58 nM | 1.5
11 | Nc1nc(-c2cccc(-n3ccc4cc(C5CC5)cc(F)c4c3=O)c2CO)c2cc(C3=CCS(=O)(=O)CC3)[nH]c2n1 [Example 83, 2-{3-[2-amino-6-(1,1-dioxido-3,6-dihydro-2H-thiopyran-4-yl)-7H-pyrrolo[2,3-d]pyrimidin-4-yl]-2-(hydroxymethyl)phenyl}-6-cyclopropyl-8-fluoroisoquinolin-1(2H)-one] | 8 nM |  | 0.25 nM | 0.58 nM | 2.3
12 | CCC(=O)N1CC=C(c2cc3c(-c4cccc(-n5ccc6cc(C7CC7)cc(F)c6c5=O)c4CO)nc(N)nc3[nH]2)CC1 [Example 84, 2-{3-[2-amino-6-(1-propionyl-1,2,3,6-tetrahydropyridin-4-yl)-7H-pyrrolo[2,3-d]pyrimidin-4-yl]-2-(hydroxymethyl)phenyl}-6-cyclopropyl-8-fluoroisoquinolin-1(2H)-one] | 6 nM |  | 0.41 nM | 0.82 nM | 2
13 | CN(C)C(=O)N1CC=C(c2cc3c(-c4cccc(-n5ccc6cc(C7CC7)cc(F)c6c5=O)c4CO)nc(N)nc3[nH]2)CC1 [Example 87, 4-{2-amino-4-[3-(6-cyclopropyl-8-fluoro-1-oxoisoquinolin-2(1H)-yl)-2-(hydroxymethyl)phenyl]-7H-pyrrolo[2,3-d]pyrimidin-6-yl}-N,N-dimethyl-5,6-dihydropyridine-1(2H)-carboxamide] |  |  | 0.52 nM | 0.95 nM | 1.8
14 | Nc1nc(-c2cccc(-n3ccc4cc(C5CC5)cc(F)c4c3=O)c2CO)c2cc(C3=CCNCC3)[nH]c2n1 [Example 93, 2-{3-[2-amino-6-(1,2,3,6-tetrahydropyridin-4-yl)-7H-pyrrolo[2,3-d]pyrimidin-4-yl]-2-(hydroxymethyl)phenyl}-6-cyclopropyl-8-fluoroisoquinolin-1(2H)-one] |  |  | 0.41 nM | 0.99 nM | 2.4
